Measurements taken from PMC12191924, “A new naphthalene-based fluorogenic substrate for cytochrome P450 4A11” (Biochemical Journal, 2025).
Read-outs that look alike come from different tables or passages of the source.

Tested on: pooled human liver microsomes (HLM)
Experiment: Substrate saturation profiles of MONACRA metabolism by pooled HLM, global fitting
Type: in vitro ADME
Settings: for Km: global fitting of seven pooled HLM preparations
Excerpt: To probe the MONACRA metabolism by the human liver P450 system, we explored the SSPs of our new fluorogenic substrate by seven different pooled HLM preparations with P450 pool composition characterized by a global proteomics toolkit. […] The first two principal components cover 99.4% of the overall differences between the individual SSPs. While the first principal component mainly reflects the differences in SSP amplitude, the second PC is responsible for the changes in the contribution of the high- and low-affinity components. Global fitting of the dataset with a combination of three Michaelis–Menten equations yielded the components with K M values of 21, 213, and 730 µM (Figure 10C). The combinations of these three Michaelis–Menten components approximate all individual SSPs of the dataset with a square correlation coefficient (R ^2) higher than 0.998.
Figure 10: Substrate saturation profiles (SSPs) of 3-(6-methoxynaphthalen-2-yl)acrylic acid (MONACRA) metabolism by seven pooled preparations of human liver microsomes (HLMs) and their global analysis. The HLM preparations used in this study and their designations are described in the “Materials and Methods” section of the article. […] These two principal components cover 99.4% of the overall differences between the SSPs. […] The substance label MONACRA is taken from the axis title, as no other label is printed.
This study used preparations of pooled HLMs from 50, 150, or 200 donors (mixed gender). The preparations CDN, DNJ, and WGP were INVITROCYP 150-Donor Human Liver Microsomes obtained from BioIVT Corporation (Westbury, NY). Lot EGW is INVITROCYP M-Class 50-Donor HLM procured from the same company. Lots 1,910,096 and 1,210,347 were XTreme 200 Mixed Gender HLM (200 donors) purchased from XenoTech LLC (Kansas City, KS), currently a part of BioIVT. Lot 2,110,263 corresponds to mixed gender HLM from 50 donors from the same company. These lots are referred to herein as X096, X347, and X263, respectively. The supplier of the HLM preparations used in our studies, BioIVT Corporation, has declared to adhere to the regulations of the Department of Health and Human Services for the protection of human subjects (45 CFR §46.116 and §46.117) and Good Clinical Practice, (ICH E6) in obtaining the samples of human tissues used for producing the preparations of human subcellular fractions available from these companies.
The MONACRA metabolism experiments were conducted with 12 MONACRA stock solutions in the Incubation Buffer (0.1 M Hepes buffer pH 7.4 containing 60 mM KCl) with concentrations ranging from 0 to 3.3 mM prepared with serial dilution. A 0.3 M stock solution of MONACRA in DMSO was diluted by the Incubation Buffer to prepare the most concentrated (3.3 mM) solution in the series. This series of stock solutions provided the MONACRA concentrations in the incubation mixture decreasing from 825 to 0 µM with a dilution factor of 1.73333 (≈√3). The procedure of preparing the multiwell plates for activity assays was similar to that described earlier for FA-based assays. The prepared plate was placed into a heater-shaker module with a PCR-plate adapter in location 1 of the OT-2 deck. Suspensions of microsomes were diluted to the desired concentration (0.02–0.1 µM P450 for recombinant enzymes and 0.3–1 mg/ml for HLM samples) and placed into all eight wells of the first row of a PCR plate (96-well semi-skirted PCR plate, BrandTech Scientific Inc., Essex, CT), 255 µl per well. The PCR plate was inserted into a pre-cooled PCR-plate cooling block (Eppendorf, Hamburg, Germany) and placed at position 5 of the OT-2 deck. An Azzota deep-well plate placed in location 6 contained 0.4 ml of 0.3 M solution trichloroacetic acid as a quenching reagent. The second row of the same plate contained 0.6 ml of 2.4 molar Na-glycine buffer, pH 10.4. […]

[1] = across seven pooled HLM preparations

COc1ccc2cc(C=CC(=O)O)ccc2c1 [MONACRA, 3-(6-methoxynaphthalen-2-yl)acrylic acid] was tested, and the “F 1 (fractional contribution of high-affinity phase)” value (HLM sample CDN) was 0.1%, the “F 2 (fractional contribution of middle-affinity phase)” value (HLM sample CDN) was 68.7% and the “F 3 (fractional contribution of low-affinity phase)” value (HLM sample CDN) was 31.2%. For the same molecule, the “F 1 (fractional contribution of high-affinity phase)” value (HLM sample DNJ) was 0.5%, the “F 2 (fractional contribution of middle-affinity phase)” value (HLM sample DNJ) was 91.6% and the “F 3 (fractional contribution of low-affinity phase)” value (HLM sample DNJ) was 7.9%. For the same molecule, the “F 1 (fractional contribution of high-affinity phase)” value (HLM sample EGW) was 2.5%, the “F 2 (fractional contribution of middle-affinity phase)” value (HLM sample EGW) was 97.5% and the “F 3 (fractional contribution of low-affinity phase)” value (HLM sample EGW) was 0.0%. The “F 1 (fractional contribution of high-affinity phase)” value (HLM sample WGP) was 0.0%, the “F 2 (fractional contribution of middle-affinity phase)” value (HLM sample WGP) was 34.4% and the “F 3 (fractional contribution of low-affinity phase)” value (HLM sample WGP) was 65.6%. The “F 1 (fractional contribution of high-affinity phase)” value (HLM sample X096) was 9.8%, the “F 2 (fractional contribution of middle-affinity phase)” value (HLM sample X096) was 0.0% and the “F 3 (fractional contribution of low-affinity phase)” value (HLM sample X096) was 90.2%. For the same molecule, the “F 1 (fractional contribution of high-affinity phase)” value (HLM sample X263) was 21.7%, the “F 2 (fractional contribution of middle-affinity phase)” value (HLM sample X263) was 21.5% and the “F 3 (fractional contribution of low-affinity phase)” value (HLM sample X263) was 56.8%. The “fraction of the high-affinity phase, average” value [1] was 5.5%, the “fraction of the lowest affinity component, average” value [1] was 45.3% and the “fraction of the lowest affinity component, range” value [1] was 0–90%. The “fraction of the middle-affinity phase, average” value [1] was 49.2%, the “fraction of the middle-affinity phase, range” value [1] was 0–100% and the Km (read-out: KM of high-affinity Michaelis–Menten component) was 21 µM. It also gave a Km (read-out: KM of low-affinity Michaelis–Menten component) of 730 µM and a Km (read-out: KM of middle-affinity Michaelis–Menten component) of 213 µM.
